Read-outs that look alike come from different tables or passages of the source.
What was measured:
[1] = target: recombinant human His-tagged MDM2 protein (residues 1-118) (Homo sapiens (Human), UniProt Q00987); test: Fluorescence-polarization MDM2 binding assay;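 note: fluorescence polarization read after three hours of incubation in potassium phosphate buffer containing bovine gamma globulin and Triton X-100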
[2] = tested on: Isogenic HCT-116 colon cancer cell lines; test: cells; type: cell-based;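 note: cells grown in 96-well plates in McCoy's 5A medium with 10% FBS, exposed to compound for 4 days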
Procedure: Cells were seeded in 96-well flat bottom cell culture plates at a density of 2−3×10^3 cells/well with compounds and incubated for 4 days.

[3] = tested on: cancer cell lines with wild-type p53 / mutated or deleted p53 (ATCC); test: Cell growth assay (WST-8), other cancer cell lines; type: cell-based
[4] = Table 19D, read-out: MDM2 Binding Affinities IC50
[5] = Homo sapiens, HCT-116, read-out: HCT116p53KO IC50, Table 19D, HCT116 p53KO
[6] = Homo sapiens, HCT-116, read-out: HCT116p53WT IC50, Table 19D, HCT116 p53WT
[7] = Homo sapiens, LNCaP, Table 19D, LNCaP cells, read-out: LNCaP IC50
[8] = Homo sapiens, PC-3, Table 19D, PC3 cells, read-out: PC3 IC50
[9] = Table 19B, read-out: Binding affinities to MDM2 protein as determined by FP based assay IC50
[10] = Homo sapiens, HCT-116, read-out: Inhibition of cell growth IC50, HCT116 p53 KO, Table 19B, HCT116 p53 KO
[11] = Homo sapiens, HCT-116, read-out: Inhibition of cell growth IC50, HCT116 p53 WT, Table 19B, HCT116 p53 WT
[12] = Homo sapiens, LNCaP, Table 19B, LNCaP cells, read-out: Inhibition of cell growth IC50, LNCaP
[13] = Homo sapiens, PC-3, Table 19B, PC3 cells, read-out: Inhibition of cell growth IC50, PC3
[14] = Table 19A, FP binding assay, read-out: MDM2 IC50
[15] = Homo sapiens, HCT-116, read-out: HCT-116 (p53-/-) IC50, Table 19A, HCT-116 p53-/-, cell growth
[16] = Homo sapiens, HCT-116, read-out: HCT-116 (p53 wild-type) IC50, Table 19A, HCT-116 p53 wild-type, cell growth
[17] = Homo sapiens, LNCaP, Table 19A, LNCAP cells, p53 wild-type, cell growth, read-out: LNCAP (p53 wild-type) IC50
[18] = Homo sapiens, PC-3, Table 19A, PC-3 cells, deleted p53, cell growth, read-out: PC-3 (deleted p53) IC50
[19] = Homo sapiens, SJSA-1, Table 19A, SJSA-1 cells, p53 wild-type, cell growth, read-out: SJSA-1 (p53 wild-type) IC50
[20] = Table 19C, read-out: Bidning affinities to MDM2 as determined using FP assay IC50
[21] = Homo sapiens, HCT-116, read-out: Cell growth inhibition using WST assay, HCT116 p53KO IC50, Table 19C, HCT116 p53KO
[22] = Homo sapiens, HCT-116, read-out: Cell growth inhibition using WST assay, HCT116 p53WT IC50, Table 19C, HCT116 p53WT

Sequence of recombinant human His-tagged MDM2 protein (residues 1-118) (Q00987 1-118): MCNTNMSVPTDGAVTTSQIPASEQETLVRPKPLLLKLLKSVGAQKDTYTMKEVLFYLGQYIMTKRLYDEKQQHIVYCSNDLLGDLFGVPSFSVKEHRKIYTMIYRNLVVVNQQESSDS

Compound: CC(C)(C)C[C@H]1N[C@@H](C(=O)NCC[C@H](O)CO)[C@H](c2cccc(Cl)c2)[C@@]12C(=O)Nc1cc(F)c(F)cc12 [MI-519-9]
- IC50 [1, 4]: < 3 µM
- IC50 [2, 5]: > 10 µM
- IC50 [2, 6]: < 3 µM
- IC50 [3, 7]: < 3 µM
- IC50 [3, 8]: > 10 µM

Compound: O=C(NCC[C@H](O)CO)[C@@H]1N[C@H](CCC2CCCC2)[C@]2(C(=O)Nc3cc(Cl)c(F)cc32)[C@H]1c1cccc(Cl)c1 [MI-712]
- IC50 [1, 9]: < 3 µM
- IC50 [2, 10]: 9.1 ± 1 µM
- IC50 [2, 11]: 1.8 ± 0.4 µM
- IC50 [3, 12]: 1 µM
- IC50 [3, 13]: 7.9 ± 0.2 µM

Compound: O=C(NCC[C@H](O)CO)[C@@H]1N[C@H](CCc2cccs2)[C@]2(C(=O)Nc3cc(Cl)c(F)cc32)[C@H]1c1cccc(Cl)c1 [MI-703]
- IC50 [1, 9]: > 1 µM
- IC50 [2, 10]: 4.3 ± 1.6 µM
- IC50 [2, 11]: 1 ± 0.2 µM
- IC50 [3, 12]: 0.2 µM
- IC50 [3, 13]: 3.9 ± 0.5 µM

Compound: CN1[C@@H](C(=O)NCC[C@H](O)CO)[C@H](c2cccc(Cl)c2)[C@@]2(C(=O)Nc3cc(Cl)c(F)cc32)[C@H]1CCc1cccs1 [MI-714]
- IC50 [1, 9]: > 10 µM
- IC50 [2, 10]: 7.5 ± 0.3 µM
- IC50 [2, 11]: 8.6 ± 0.1 µM
- IC50 [3, 12]: 4.3 µM
- IC50 [3, 13]: 7.7 ± 1.6 µM

Compound: O=C(NCC[C@H](O)CO)[C@@H]1N[C@H](CCc2ccco2)[C@]2(C(=O)Nc3cc(Cl)c(F)cc32)[C@H]1c1cccc(Cl)c1 [MI-715C]
- IC50 [1, 9]: < 5 µM
- IC50 ([2]; read-out: Inhibition of cell growth IC50, HCT116 p53 KO, Table 19B, HCT116 p53 KO): > 10 µM
- IC50 ([2]; read-out: Inhibition of cell growth IC50, HCT116 p53 WT, Table 19B, HCT116 p53 WT): 2.9 ± 0.6 µM
- IC50 ([3]; Table 19B, LNCaP cells, read-out: Inhibition of cell growth IC50, LNCaP): 2.2 ± 1.2 µM
- IC50 ([3]; Table 19B, PC3 cells, read-out: Inhibition of cell growth IC50, PC3): > 10 µM

Compound: CN1CCC(CNC(=O)[C@@H]2N[C@H](CC(C)(C)C)[C@]3(C(=O)Nc4cc(Cl)ccc43)[C@H]2c2cccc(Cl)c2F)CC1 [MI-519-53-1]
- IC50 [1, 4]: < 1 µM
- IC50 [2, 5]: > 3 µM
- IC50 [2, 6]: < 1 µM
- IC50 [3, 7]: < 1 µM
- IC50 [3, 8]: > 3 µM
- IC50 ([3]; Homo sapiens, Table 19D, SJSA-1 cells, unit inferred, read-out: SJSA-1): < 1 µM

Compound: CC(C)(C)C[C@H]1N[C@@H](C(=O)NCCCO)[C@H](c2cccc(Cl)c2)[C@@]12C(=O)Nc1cc(Cl)c(F)cc12 [MI-219-M8]
- IC50 [1, 4]: < 1 µM
- IC50 [2, 5]: 18 ± 4.1 µM
- IC50 [2, 6]: 1.4 ± 0.9 µM
- IC50 [3, 7]: 1.1 ± 0.5 µM
- IC50 [3, 8]: 9.2 ± 1.6 µM

Compound: CN1CCN(C(=O)[C@@H]2N[C@H](CC(C)(C)C)[C@]3(C(=O)Nc4cc(Cl)c(F)cc43)[C@H]2c2cccc(Cl)c2)CC1 [MI-740]
- IC50 [1, 14]: < 5 µM
- IC50 [2, 15]: 5.4 ± 1.9 µM
- IC50 [2, 16]: 2.8 ± 0.1 µM
- IC50 [3, 17]: 2 ± 0.3 µM
- IC50 [3, 18]: 4.8 ± 0.8 µM

Compound: CC(=O)OC(C)(C)C(=O)N1CC(NC(=O)[C@@H]2N[C@H](CC(C)(C)C)[C@]3(C(=O)Nc4cc(Cl)ccc43)[C@H]2c2cccc(Cl)c2F)C1 [MI-914]
- IC50 [1, 14]: < 1 µM
- IC50 [2, 15]: > 10 µM
- IC50 [2, 16]: < 3 µM
- IC50 [3, 17]: < 3 µM
- IC50 [3, 18]: > 5 µM
- IC50 [3, 19]: < 3 µM

Compound: CC(C)(C)C[C@H]1N[C@@H](C(=O)NCC[C@@](C)(O)CO)[C@H](c2cccc(Cl)c2F)[C@@]12C(=O)Nc1cc(Cl)ccc12 [MI-790]
- IC50 [1, 14]: < 3 µM
- IC50 [2, 15]: > 10 µM
- IC50 [2, 16]: < 3 µM
- IC50 [3, 17]: < 3 µM
- IC50 [3, 18]: > 10 µM
- IC50 [3, 19]: < 3 µM

Compound: CC(C)(C)C[C@H]1N[C@@H](C(=O)NC2CCC(OC(=O)[C@@H](N)Cc3ccccc3)CC2)[C@H](c2cccc(Cl)c2F)[C@@]12C(=O)Nc1cc(Cl)ccc12 (some centres unmarked) [MI-910]
- IC50 [1, 14]: < 1 µM
- IC50 [2, 15]: 9.8 µM
- IC50 [2, 16]: < 3 µM
- IC50 [3, 17]: < 3 µM
- IC50 [3, 18]: 7 µM
- IC50 [3, 19]: < 3 µM

Compound: CC(C)CC(C)(C)C[C@H]1N[C@@H](C(=O)NCC[C@H](O)CO)[C@H](c2cccc(Cl)c2)[C@@]12C(=O)Nc1cc(F)c(F)cc12 [MI-735]
- IC50 [1, 9]: < 1 µM
- IC50 [2, 10]: 8.5 ± 1.1 µM
- IC50 [2, 11]: 1.2 ± 0.3 µM
- IC50 [3, 12]: 1.1 ± 0.4 µM
- IC50 [3, 13]: 8.6 ± 0.9 µM

Compound: CC(C)(C)C[C@H]1N[C@@H](C(=O)NCCC2CCC(O)C2)[C@H](c2cccc(Cl)c2)[C@@]12C(=O)Nc1cc(F)c(F)cc12 (some centres unmarked) [MI-519-25]
- IC50 [1, 4]: < 3 µM
- IC50 [2, 5]: > 10 µM
- IC50 [2, 6]: < 3 µM
- IC50 [3, 7]: < 5 µM
- IC50 [3, 8]: > 10 µM

Compound: CCOP(=O)(OCC)OC[C@@H](O)CCNC(=O)[C@@H]1N[C@H](CC(C)(C)C)[C@]2(C(=O)Nc3cc(Cl)c(F)cc32)[C@H]1c1ccc(F)c(Cl)c1 [MI-319-27]
- IC50 [1, 20]: < 5 µM
- IC50 [2, 21]: > 10 µM
- IC50 [2, 22]: < 5 µM
- IC50 ([3]; Homo sapiens, LNCaP, read-out: Cell growth inhibition using WST assay, LNCaP IC50): < 5 µM
- IC50 ([3]; Homo sapiens, PC-3, read-out: Cell growth inhibition using WST assay, PC3 IC50): > 10 µM

Compound: CC(C)(C)C[C@H]1N[C@@H](C(=O)NCC[C@H](O)CO)[C@H](c2cccc(Cl)c2F)[C@@]12C(=O)Nc1cc(F)c(F)cc12 [MI-519-10]
- IC50 [1, 4]: < 3 µM
- IC50 [2, 5]: > 10 µM
- IC50 [2, 6]: < 3 µM
- IC50 [3, 7]: < 3 µM
- IC50 [3, 8]: > 10 µM

Compound: CC(C)(C)C[C@H]1N[C@@H](C(=O)NC2CCC(OC(=O)CN)CC2)[C@H](c2cccc(Cl)c2F)[C@@]12C(=O)Nc1cc(Cl)ccc12 (some centres unmarked) [MI-901]
- IC50 [1, 14]: < 1 µM
- IC50 [2, 15]: > 10 µM
- IC50 [2, 16]: < 3 µM
- IC50 [3, 17]: < 3 µM
- IC50 [3, 18]: > 5 µM
- IC50 [3, 19]: < 3 µM

Compound: CN1[C@@H](C(=O)NCC[C@H](O)CO)[C@H](c2cccc(Cl)c2F)[C@@]2(C(=O)Nc3cc(F)c(F)cc32)[C@H]1CC(C)(C)C [MI-718]
- IC50 [1, 9]: > 3 µM
- IC50 [2, 10]: 47.2 ± 5 µM
- IC50 [2, 11]: 3 ± 1.1 µM
- IC50 [3, 12]: 3.7 ± 0.3 µM
- IC50 [3, 13]: 34.2 ± 0.4 µM

Compound: CC(=O)N1CCC(NC(=O)[C@@H]2N[C@H](CC(C)(C)C)[C@]3(C(=O)Nc4cc(Cl)ccc43)[C@H]2c2cccc(Cl)c2F)CC1 [MI-783]
- IC50 [1, 14]: < 0.5 µM
- IC50 [2, 15]: 18.5 µM
- IC50 [2, 16]: 0.9 µM
- IC50 [3, 19]: 1.1 µM

Compound: CCN(CC)C(=O)N1CC(NC(=O)[C@@H]2N[C@H](CC(C)(C)C)[C@]3(C(=O)Nc4cc(Cl)ccc43)[C@H]2c2cccc(Cl)c2F)C1 [MI-917]
- IC50 [1, 14]: < 1 µM
- IC50 [2, 15]: > 10 µM
- IC50 [2, 16]: < 3 µM
- IC50 [3, 17]: < 3 µM
- IC50 [3, 18]: > 5 µM

Compound: CC(C)(C)C[C@H]1N[C@@H](C(=O)NC[C@H](O)[C@H](O)CO)[C@H](Cc2cccc(Cl)c2)[C@@]12C(=O)Nc1cc(Cl)c(F)cc12 [MI-319-24]
- IC50 [1, 20]: < 1 µM
- IC50 [2, 21]: > 10 µM
- IC50 [2, 22]: < 5 µM
- IC50 ([3]; Homo sapiens, LNCaP, Table 19C, LNCaP cells, read-out: Cell growth inhibition using WST assay, LNCaP IC50): < 5 µM
- IC50 ([3]; Homo sapiens, PC-3, Table 19C, PC3 cells, read-out: Cell growth inhibition using WST assay, PC3 IC50): > 10 µM

Compound: CC(C)NC(=O)N1CC(NC(=O)[C@@H]2N[C@H](CC(C)(C)C)[C@]3(C(=O)Nc4cc(Cl)ccc43)[C@H]2c2cccc(Cl)c2F)C1 [MI-911]
- IC50 [1, 14]: < 3 µM
- IC50 [2, 15]: > 10 µM
- IC50 [2, 16]: < 5 µM
- IC50 [3, 17]: < 5 µM
- IC50 [3, 18]: > 10 µM
- IC50 [3, 19]: < 5 µM

From patent publication US9079913B2, “Spiro-oxindole MDM2 antagonists” (The Regents of the University of Michigan, priority 2009, dated 2015)
